Reference: patent US4211773A, “5-Substituted 1-(2'-Deoxy-2'-substituted-β-D-arabinofuranosyl)pyrimidine nucleosides” (Sloan Kettering Institute for Cancer Research, priority 1978, dated 1980)
Values after ≈ are worked out from the molar mass of the structure shown. Read-outs that look alike come from different tables or passages of the source.

Assays:
[1] = system: Herpes Simplex Virus--Type 1 (HSV-1) strain 2931; test: Capacity to suppress HSV-1 replication in monolayers of Vero cells; format: cell-based; conditions: 24 hr, read-out: Anti-viral Activity (% reduction of HSV1 titer); for activity at 0.01 µg/mL: Human alphaherpesvirus 1, 0.01 μg/ml; for activity at 0.1 µg/mL: Human alphaherpesvirus 1, 0.1 μg/ml; for activity at 1 µg/mL: Human alphaherpesvirus 1, 1.0 μg/ml; for activity at 10 µg/mL: Human alphaherpesvirus 1, 10 μg/ml; for activity at 100 µg/mL: Human alphaherpesvirus 1, 100 μg/ml
Method: The capacity of 2'-fluoro-arabinosyl nucleosides (Formulas IV and V shown below) to suppress replication of Herpes Simplex virus-type 1 (HSV-1) in monolayers of Vero cells is shown in Table I.
Vero cell monolayers were infected with approximately 1 plaque forming unit (PFU) per cell of Herpes Simplex Virus--Type 1 (HSV-1) strain 2931 and incubated for 2 hr. Maintenance media containing the various concentrations of drugs were used to overlay the monolayers. Supernatant fluids were collected 24 hr. later and titered on Vero cell monolayers described in Lopez et al, Ann. N.Y. Acad. Sci., 284, 351 (1977). Percent inhibition over controls was calculated.

P815 = test: Cytotoxicity, inhibition of growth of P815 cells in vitro; format: cell-based; conditions: Mus musculus, 96 hrs. incubation at 37° C., read-out: Cytoxicity ID50
Method: (§1) *****Concentration required for 50% inhibition of growth of cells in
(§2) vitro after 96 hrs. incubation at 37° C.

L51784 = test: Cytotoxicity, inhibition of growth of L51784 cells in vitro; format: cell-based; conditions: 96 h, read-out: Cytoxicity ID50
Method: as §1, §2

[2] = system: Herpes Simplex Virus - type 1; test: Inhibition of Herpes Simplex Virus type 1 replication (effective doses); format: cell-based; conditions: for EC50: read-out: ED50 (the source's name)
Method: (§3) Compounds of the invention show anti-viral and anti-tumor activity. 1-(2-Deoxy-2-fluoro-β-D-arabinofuranosyl)-5-iodocytosine inhibits Herpes Simplex Virus type 1 and type 2 replication. HFEM, Patton, 2931, and F-strain HSV-1 and 333 and G-strain HSV-2 are affected at concentrations of 1-(2-deoxy-2-fluoro-β-D-arabinofuranosyl)-5-iodocytosine 0.01 μM (approximately 0.004 μg/ml).
(§4) The effective doses for 1-(2-deoxy-2-fluoro-β-D-arabinofuranosyl)-5-iodocytosine are given below. 1-(2-deoxy-2-fluoro-β-D-arabinofuranosyl)-5-iodocytosine is diluted in physiological saline, filter sterilized, and inoculated. This compound is readily soluble at concentrations of 25 mg/ml in saline. In mouse studies, the drug is inoculated by the intraperitoneal route.

[3] = system: thymidine kinase negative strain of HSV-1 (HSV-1 TK^-); test: Activity against thymidine kinase negative HSV-1; format: cell-based; conditions: Human alphaherpesvirus 1, read-out: not affected at concentrations of up to
Solubility in saline = format: physicochemical; conditions: read-out: readily soluble at concentrations of
Method: as §4

[4] = Toxicity to normal lymphoblastoid cells; format: cell-based; conditions: read-out: not toxic at concentrations of up to
Method: Since 1-(2-deoxy-2-fluoro-β-D-arabinofuranosyl)-5-iodocytosine was not toxic to normal lymphoblastoid cells at concentrations of up to 10 μM, the compound is believed to affect tumor cells at concentrations 1/100th those needed to suppress normal cell replication. Compounds of the invention can be used as a selective treatment for tumors expressing the fetal thymidine kinase which includes most tumors.

[5] = system: K 562 cells, a cell line of chronic myologenous leukemia cells; test: Suppression of replication of K 562 cells in vitro; format: cell-based; conditions: Homo sapiens, K562, read-out: concentration found to suppress replication of K 562 cells
Method: Since 1-(2-deoxy-2-fluoro-β-D-arabinofuranosyl)-5-iodocytosine was active against a virus which uses fetal thymidine kinase and since many tumor cells express high concentrations of fetal thymidine kinase, it was tested as a selective anti-tumor agent.

[6] = system: Herpes Simplex Virus - type 2; test: Inhibition of Herpes Simplex Virus type 2 replication (effective doses); format: cell-based; conditions: for EC50: read-out: ED50 (the source's name)
Method: as §3, §4

HSV-1 strain 2931 = test: In vivo activity in A/J mice infected with HSV-1 strain 2931; conditions: for mice surviving the 21 day experiment: starting 24 hours after inoculation
Method: as §4
1-(2-deoxy-2-fluoro-β-D-arabinofuranosyl)-5-iodocytosine was also shown to be active in vivo. A/J mice were inoculated with approximately 50 LD50 of HSV-1 strain 2931 intraperitoneally and then treated with 1-(2-deoxy-2-fluoro-β-D-arabinofuranosyl)-5-iodocytosine starting 24 hours later. 1-(2-deoxy-2-fluoro-β-D-arabinofuranosyl)-5-iodocytosinewas given at 10 and 1 mg/kg/da for 5 days. Untreated mice died 8 days after inoculation. Five of 10 mice treated with 10 mg/kg/day survived the 21 day experiment. Two of 10 treated with 1 mg/kg/da survival the 21 day experiment and the remainder died an average of 10 days after inoculation.

[7] = system: Cytomegalovirus (CMV strain AD 169); test: Effective dose against Cytomegalovirus strain AD-169; CMV plaque formation on WI-38 cells; format: cell-based; conditions: for minimal effective concentration: Human betaherpesvirus 5, CMV strain AD 169, WI-38 cells
Method: as §4

herpes infections = conditions: therapeutic trials in herpes infections; cited from earlier work
several DNA virus = conditions: cell culture; cited from earlier work
[8] = system: herpes simplex virus (HSV); conditions: compared with corresponding deoxyuridine analogs; cited from earlier work
HSV type 2 = conditions: cited from earlier work
equine herpesvirus = conditions: cited from earlier work
HSV type 1 = conditions: cited from earlier work
[9] = system: herpesvirus infected cells; conditions: cells in which deoxycytidine deaminase is present; cited from earlier work
anti-viral = conditions: cited from earlier work

| Structure (SMILES) | activity at 0.01 µg/mL [1] | activity at 0.1 µg/mL [1] | activity at 1 µg/mL [1] | activity at 10 µg/mL [1] | IC50 (P815) | IC50 (L51784) | other results |
| --- | --- | --- | --- | --- | --- | --- | --- |
| Nc1nc(=O)n([C@@H]2O[C@H](CO)[C@@H](O)[C@@H]2F)cc1Cl [IVc, 1-(2-deoxy-2-fluoro-β-D-arabinofuranosyl)-5-chlorocytosine] | < 90% | < 90% | < 90% | 99.9 to 100% | ~1 µg/mL (≈ 3.58 µM) | 1.4 µg/mL (≈ 5.01 µM) | – |
| Nc1nc(=O)n([C@@H]2O[C@H](CO)[C@@H](O)[C@@H]2F)cc1I [IVe, 1-(2-deoxy-2-fluoro-β-D-arabinofuranosyl)-5-iodocytosine] | 90 to 99% | 99 to 99.9% | 100% | 100% | 14 µg/mL (≈ 37.7 µM) | 48 µg/mL (≈ 129 µM) | EC50 ([2]; Human alphaherpesvirus 1, HSV-1 strain 2931): 7 nM; EC50 ([2]; Human alphaherpesvirus 1, HSV-1 strain HFEM): < 10 nM; EC50 ([2]; Human alphaherpesvirus 1, HSV-1 strain McIntyre): < 10 nM; EC50 ([2]; Human alphaherpesvirus 1, HSV-1 strain Patton): 10 nM; minimal effective concentration ([2]; Human alphaherpesvirus 1, HFEM, Patton, 2931 and F-strain HSV-1, read-out: concentration at which HSV-1 strains are affected): 0.01 µM; minimal effective concentration [3]: > 10 µM; activity at 100 µg/mL [1]: 100%; solubility (Solubility in saline): ≥ 25 mg/mL; MNTC [4]: > 10 µM; minimal effective concentration [5]: 0.04 µg/mL; EC50 ([6]; Human alphaherpesvirus 2, HSV-2 strain 333): 50 nM; EC50 ([6]; Human alphaherpesvirus 2, HSV-2 strain G): 10 nM; minimal effective concentration ([6]; Human alphaherpesvirus 2, 333 and G-strain HSV-2, read-out: concentration at which HSV-2 strains are affected): 0.01 µM; average time of death after inoculation (non-surviving mice) (HSV-1 strain 2931; 1 mg/kg/da for 5 days, intraperitoneal, remainder of mice): 10 days; mice surviving the 21 day experiment (HSV-1 strain 2931; 1 mg/kg/da for 5 days, intraperitoneal): Two of 10; mice surviving the 21 day experiment (HSV-1 strain 2931; 10 mg/kg/day for 5 days, intraperitoneal): Five of 10; in vivo activity against HSV-1 (HSV-1 strain 2931; 10 and 1 mg/kg/da for 5 days): active in vivo against HSV-1; EC50 ([7]; Human betaherpesvirus 5, AD169, WI-38, CMV strain AD-169, read-out: ED50 (the source's name)): 1000 nM; minimal effective concentration ([7]; read-out: concentration found to reduce CMV plaque formation): 1 µM; minimal effective concentration ([7]; read-out: concentration found to reduce CMV plaque formation (mass units)): 0.4 µg/mL |
| Nc1ccn([C@@H]2O[C@H](CO)[C@@H](O)[C@@H]2O)c(=O)n1 [ara-C, 1-β-D-Arabinofuranosylcytosine] | – | – | – | – | – | – | therapeutic to toxic ratio (herpes infections): unity; inhibition of multiplication of several DNA virus (several DNA virus): inhibits the multiplication of several DNA virus in cell culture |
| Nc1nc(=O)n([C@H]2C[C@H](O)[C@@H](CO)O2)cc1I [5-iodo-2'-deoxycytidine] | – | – | – | – | – | – | inhibition of HSV replication [8]: as effectively as their corresponding deoxyuridine analogs |
| Cc1cn([C@@H]2O[C@H](CO)[C@@H](O)[C@@H]2O)c(=O)[nH]c1=O [Ara-T] | – | – | – | – | – | – | activity against HSV type 2 (HSV type 2): active; activity against equine herpesvirus (equine herpesvirus): active; activity against HSV type 1 (HSV type 1): active |
| Nc1nc(=O)n([C@@H]2O[C@H](CO)[C@@H](O)[C@@H]2F)cc1Br [IVd, 1-(2-deoxy-2-fluoro-β-D-arabinofuranosyl)-5-bromocytosine] | < 90% | 90 to 99% | 99 to 99.9% | 100% | > 10 µg/mL | ~10 µg/mL (≈ 30.9 µM) | – |
| Nc1nc(=O)n([C@@H]2O[C@H](CO)[C@@H](O)[C@@H]2F)cc1F [IVb, 1-(2-deoxy-2-fluoro-β-D-arabinofuranosyl)-5-fluorocytosine] | < 90% | 90 to 99% | 99 to 99.9% | 99.9 to 100% | 0.4 µg/mL (≈ 1.52 µM) | 0.5 µg/mL (≈ 1.9 µM) | – |
| O=c1ccn([C@@H]2O[C@H](CO)[C@@H](O)[C@@H]2F)c(=O)[nH]1 [Va] | < 90% | < 90% | 99 to 99.9% | 99 to 99.9% | > 10 µg/mL | > 10 µg/mL | – |
| O=c1[nH]c(=O)n([C@@H]2O[C@H](CO)[C@@H](O)[C@@H]2F)cc1Br [Vd, 1-(2-deoxy-2-fluoro-β-D-arabinofuranosyl)-5-bromouracil] | < 90% | < 90% | 99 to 99.9% | 100% | 1.6 µg/mL (≈ 4.92 µM) | 0.9 µg/mL (≈ 2.77 µM) | – |
| Nc1nc(=O)n([C@H]2C[C@H](O)[C@@H](CO)O2)cc1Br [5-Bromo-2'-deoxycytidine] | – | – | – | – | – | – | inhibition of HSV replication [8]: as effectively as their corresponding deoxyuridine analogs |
| O=c1[nH]c(=O)n([C@@H]2O[C@H](CO)[C@@H](O)[C@@H]2F)cc1F [Vb, 1-(2-deoxy-2-fluoro-β-D-arabinofuranosyl)-5-fluorouracil] | < 90% | 99 to 99.9% | 100% | 100% | 0.7 µg/mL (≈ 2.65 µM) | 1 µg/mL (≈ 3.79 µM) | – |
| Nc1ccn([C@@H]2O[C@H](CO)[C@@H](O)[C@@H]2F)c(=O)n1 [IVa, 1-(2-deoxy-2-fluoro-β-D-arabinofuranosyl)cytosine, reference compound] | < 90% | 90 to 99% | 90 to 99% | 99.9 to 100% | 0.05 µg/mL (≈ 0.204 µM) | 0.05 µg/mL (≈ 0.204 µM) | activity at 100 µg/mL [1]: 100% |
| Cc1cn([C@@H]2O[C@H](CO)[C@@H](O)[C@@H]2O)c(=O)nc1N [5-Methyl-ara-C] | – | – | – | – | – | – | activity against herpesvirus infected cells [9]: active |
| O=c1[nH]c(=O)n([C@@H]2O[C@H](CO)[C@@H](O)[C@@H]2F)cc1I [Ve, 1-(2-deoxy-2-fluoro-β-D-arabinofuranosyl)-5-iodouracil] | < 90% | 90 to 99% | 99.9 to 100% | 100% | 0.8 µg/mL (≈ 2.15 µM) | 0.9 µg/mL (≈ 2.42 µM) | – |
| O=c1ccn([C@@H]2O[C@H](CO)[C@@H](O)[C@@H]2O)c(=O)[nH]1 [ara-U, 1-β-D-arabinofuranosyluracil] | – | – | – | – | – | – | anti-viral activity (anti-viral): devoid of anti-viral or anti-cancer activity |
| O=c1[nH]c(=O)n([C@@H]2O[C@H](CO)[C@@H](O)[C@@H]2F)cc1Cl [Vc, 1-(2-deoxy-2-fluoro-β-D-arabinofuranosyl)-5-chlorouracil] | < 90% | < 90% | < 90% | 100% | 3.4 µg/mL (≈ 12.1 µM) | 1.4 µg/mL (≈ 4.99 µM) | – |
